Measurements taken from PMC6637423 (Organic & biomolecular chemistry, 2019).

Tests used:
[1] = tested on: C57BL/6J mice; assay: 55°C warm-water tail-withdrawal assay after oral; type: in vivo, mouse; details: morphine 5 mg/kg, p.o.
[2] = tested on: C57BL/6J mice; assay: 55°C warm-water tail-withdrawal assay after i.c.v. administration; type: in vivo, mouse; details: 1 nmol i.c.v., summed over 90 min
[3] = tested on: C57BL/6J mice; assay: Respiration rate, Oxymax/CLAMS assay; details: morphine 30 mg/kg, i.p., positive control

## CN1CC[C@]23c4c5ccc(O)c4O[C@H]2[C@@H](O)C=C[C@H]3[C@H]1C5 [Morphine]
[1]
  Antinociception after oral administration versus vehicle: significantly higher antinociceptive effects compared to vehicle treated animals
[2]
  Screening: summed tail-withdrawal latency versus vehicle: withdrawal latencies equivalent to vehicle treated animals
[3]
  Respiratory effect versus vehicle: suppressed respiration up to an hour
